According to patent EP0896002A1, “CHIMERIC PROTEINS, HETERODIMER COMPLEXES THEREOF AND SUBSTITUTE FOR PLATELET” (TORAY INDUSTRIES, INC., priority 1997, dated 1998):
Where two headings read alike, the source gives them in different places.

Molecular target: T1, α4·IgG heavy chain-β1·IgG heavy chain chimeric protein heterodimer complex (integrin α4β1; sequence Nos. 1 and 2) (Homo sapiens, UniProt P05556+P13612)
T1 construct: made in house; culture supernatant used in the assay
Experiment: Inhibition of the binding of the α4·IgG heavy chain-β1·IgG heavy chain chimeric protein heterodimer complex to solid-phase CS-1-IgG (peptide fragment of fibronectin), ELISA-type detection at 490 nm
Conditions: for inhibition at 50 µg/mL / inhibition at 100 µg/mL: read-out: Inhibition rate (%); for IC50: binding assay system of Example 9: binding to CS-1-IgG, cyclic phage-library peptides, read-out: Inhibitory activity IC50; for inhibition at 100 µg/mL: compound concentration 100 μg/ml
Experimental: At first, according to the said report (Humphries, M. J. et al., J. Biol. Chem., 262, 6886-6892 (1987)), the peptide fragment of sequence No. 3 (CS-1 peptide) was bound to rabbit IgG (Sigma), to prepare CS-1-IgG. The CS-1-IgG was diluted by PBS(-), and put in a 96-well immunoplate (NUNC) by 100 µl/well, and allowed to stand at 4°C for 16 hours, to be formed as a solid phase on the plate.
After completion of standing, the surface of the plate was washed with PBS(-) twice and treated with denatured 1% BSA(heat-natured at 80°C for 10 minutes)-PBS solution ( 300 µl/well) at 4°C for 3 hours to block the nonspecific reaction. Then, the solid phase CS-1-IgG and the CHO culture supernatant (100 µl) containing α4·IgG heavy chain-β1·IgG heavy chain chimeric protein heterodimer complex were reacted with each other at 30°C for 3 hours. The non-bound α4·IgG heavy chain-β1·IgG heavy chain chimeric protein heterodimer complex was removed by washing with 0.1% BSA-containing TBS buffer (150 mM NaCl, 25 mM Tris-HCl, 1 mM MnCl2, pH 7.4) twice, and the bound α4·IgG heavy chain-β1·IgG heavy chain chimeric protein heterodimer complex was detected by biotin labeled anti-human IgG antibody (Vector) as the primary antibody and avidin labeled horseradish peroxidase (Sigma) as the secondary antibody. The surface of the plate was washed with the TBS buffer. Orthophenylenediamine was added as a substrate to it for color development, and the absorbance at 490 nm were measured.
The all peptides were synthesized by a peptide synthesizer. The peptide and 100 µl of CHO cultured supernatant solution containing αα4·IgG heavy chain-β1·IgG heavy chain chimeric protein heterodimer complex were mixed at room temperature for 20 minutes, and the binding to CS-1-IgG was determined according to the method in Example 9.
At first, α4·IgG heavy chain-β1·IgG heavy chain chimeric protein heterodimer complex purified in Example 6, or human IgG was prepared at a proper concentration by PBS (-) and was coated on a plastic plate at 4°C for 16 hours, being formed as a solid phase on a plastic plate. Then, according to a report (Cott, J. K. and Smoth, G. P., Science, 249, 386-390 (1990)), a phage peptide library in which a random six amino acid residues were cyclyzed by the disulfide bond of cysteine at both the ends was prepared and suspended in 0.1% BSA-containing TBS buffer. The phage peptide library was reacted with human IgG at 30°C for 3 hours, to absorb phage peptides capable of being bound to IgG. Then, the non-absorbed phases were reacted with α4·IgG heavy chain-β1·IgG heavy chain chimeric protein heterodimer complex at 30°C for 3 hours, and the reaction mixture was washed with 0.1% BSA-containing TBS buffer twice to remove the phage peptides incapable of being bound to the heterodimer complex. Only the phage peptides capable of being bound were collected after elution with 0.1M glycine-hydrochloric acid (pH 2.2). After collection, the phage was amplified and the above mentioned binding operation was repeated further twice. The only the phage peptides capable of being bound to the heterodimer complex were selectively concentrated. In the final elution operation, phage peptides capable of being bound to the heterodimer complex were eluted using 10 mM EDTA and 0.1M glycine-hydrochloric acid in two steps, and the amino acid sequences of the respective peptides were analyzed. Furthermore, they were examined using the binding assay system of Example 9, and the IC50 values of the four peptide sequences showing binding inhibitory activity are shown in Table 1.
Reagents and reported compounds were picked up at random, adjusted to a final concentration of 50 or 100 µg/ml, and added to the binding determination system in Example 9. Compounds showing inhibitory activity were obtained. […]

[1] = binding determination system of Example 9 (CS-1-IgG)

T1 sequence (P13612 35-977 limits assumed, change not shown): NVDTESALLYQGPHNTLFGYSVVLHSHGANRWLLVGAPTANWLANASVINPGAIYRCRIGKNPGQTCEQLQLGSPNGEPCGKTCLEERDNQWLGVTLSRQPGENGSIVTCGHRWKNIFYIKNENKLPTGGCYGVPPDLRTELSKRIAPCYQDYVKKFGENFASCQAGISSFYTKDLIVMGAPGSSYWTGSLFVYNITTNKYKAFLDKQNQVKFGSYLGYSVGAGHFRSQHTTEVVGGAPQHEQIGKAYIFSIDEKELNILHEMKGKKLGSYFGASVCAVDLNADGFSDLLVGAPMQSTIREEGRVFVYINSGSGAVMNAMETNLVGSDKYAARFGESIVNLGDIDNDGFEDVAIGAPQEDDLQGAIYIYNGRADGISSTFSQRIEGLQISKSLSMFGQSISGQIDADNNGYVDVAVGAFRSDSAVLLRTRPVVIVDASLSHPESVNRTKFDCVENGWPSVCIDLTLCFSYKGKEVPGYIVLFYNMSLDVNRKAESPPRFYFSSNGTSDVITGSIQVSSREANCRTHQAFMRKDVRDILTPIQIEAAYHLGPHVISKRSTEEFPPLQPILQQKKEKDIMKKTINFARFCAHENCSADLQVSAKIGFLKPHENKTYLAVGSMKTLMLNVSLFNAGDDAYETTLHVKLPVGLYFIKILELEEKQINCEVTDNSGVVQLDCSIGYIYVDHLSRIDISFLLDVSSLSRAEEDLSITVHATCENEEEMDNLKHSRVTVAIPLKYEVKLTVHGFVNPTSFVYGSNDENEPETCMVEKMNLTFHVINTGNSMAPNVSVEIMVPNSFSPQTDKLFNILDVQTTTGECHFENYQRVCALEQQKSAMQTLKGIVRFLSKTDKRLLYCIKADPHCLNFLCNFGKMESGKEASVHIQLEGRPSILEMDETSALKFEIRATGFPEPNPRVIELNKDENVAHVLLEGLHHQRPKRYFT
T1 sequence (P05556 21-728 limits assumed, change not shown): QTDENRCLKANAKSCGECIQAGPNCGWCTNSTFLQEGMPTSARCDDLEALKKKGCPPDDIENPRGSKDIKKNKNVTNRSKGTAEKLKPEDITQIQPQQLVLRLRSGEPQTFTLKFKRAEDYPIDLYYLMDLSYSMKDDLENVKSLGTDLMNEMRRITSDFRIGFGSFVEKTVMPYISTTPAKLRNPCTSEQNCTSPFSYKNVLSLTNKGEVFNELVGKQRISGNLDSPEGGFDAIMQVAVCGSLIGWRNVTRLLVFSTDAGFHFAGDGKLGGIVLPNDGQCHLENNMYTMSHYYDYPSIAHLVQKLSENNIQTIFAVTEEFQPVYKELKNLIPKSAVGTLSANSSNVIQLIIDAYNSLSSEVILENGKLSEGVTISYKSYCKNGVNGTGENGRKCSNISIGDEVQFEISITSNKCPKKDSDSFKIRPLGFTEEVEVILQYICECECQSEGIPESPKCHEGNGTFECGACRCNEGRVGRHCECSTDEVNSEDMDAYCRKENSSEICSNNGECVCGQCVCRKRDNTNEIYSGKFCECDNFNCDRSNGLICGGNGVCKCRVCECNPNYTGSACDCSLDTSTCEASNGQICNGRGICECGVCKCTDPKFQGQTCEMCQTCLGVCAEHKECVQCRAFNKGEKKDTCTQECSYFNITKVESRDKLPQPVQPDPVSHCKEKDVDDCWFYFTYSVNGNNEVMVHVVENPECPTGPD
T1 sequence (P01857 99-330 partner limits assumed): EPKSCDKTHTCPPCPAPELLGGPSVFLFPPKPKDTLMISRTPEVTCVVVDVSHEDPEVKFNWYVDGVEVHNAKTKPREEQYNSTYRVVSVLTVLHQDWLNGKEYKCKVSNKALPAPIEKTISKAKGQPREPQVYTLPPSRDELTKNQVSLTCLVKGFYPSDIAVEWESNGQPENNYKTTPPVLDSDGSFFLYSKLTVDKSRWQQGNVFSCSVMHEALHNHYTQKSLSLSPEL

Molecule	IC50 [µM]	other results
CC(C)(S)[C@@H](N)C(=O)O [D-Penicillamine]	–	inhibition at 50 µg/mL: 51%
Cys* Gly Leu Gln Ala Leu Pro Cys* (GLQALPC; printed: Gly Leu Gln Ala Leu Pro Cys) [Sequence No. 30]	10	–
O=C(O)CCCc1ccc2ccccc2c1 [γ-2-Naphtyl butyric acid, γ-2-Naphthyl butyric acid]	–	inhibition at 100 µg/mL [1]: 37%
Cys* Met Arg Tyr Thr Ser Ala Cys* (MRYTSAC; printed: Met Arg Tyr Thr Ser Ala Cys) [Sequence No. 25]	2.3	–
O=C(O)CC12CC3CC(CC(C3)C1)C2 [1-Adamantaneacetic acid]	–	inhibition at 100 µg/mL [1]: 65%
C#C[C@]1(O)CC[C@H]2[C@@H]3CCC4=C(CCC(=O)C4)[C@H]3CC[C@@]21C [Norethynodrel]	–	inhibition at 50 µg/mL (compound concentration 50 μg/ml, binding determination system of Example 9 (CS-1-IgG)): 28%
Cys* Ile Pro Glu Leu Ile Val Cys* (IPELIVC; printed: Ile Pro Glu Leu Ile Val Cys) [Sequence No. 24]	1.2	–
Cys* Leu Arg Tyr Ser Val Pro Cys* (LRYSVPC; printed: Leu Arg Tyr Ser Val Pro Cys) [Sequence No. 28]	1.8	–
